Entries after “also recorded” stand apart in the source; their conditions may differ. Values belong to the compound of their own block, whether it stands above or below them.
Tests used:
GABAARs = test: GABAAR saturation test: GABA raised in ACSF after blocking both GATs; type: cell-based, mouse; conditions: GABA +10 μM in ACSF after 10 μM NO-711+40 μM SNAP-5114; control slices; n=3
Source text: (§1) Whole-cell patch-clamp recordings were made from post-stroke brain slices, within 200 μm of infarct (top left), from layer-2/3 (top right) pyramidal neurons (bottom panels) (FIG. 1A). Cells were voltage-clamped at +10 mV.

α5GABAA receptor = target: T1, α5GABAA receptor (Mus musculus, UniProt P22723+Q8BHJ7); test: Whole-cell patch-clamp of tonic inhibition (Itonic) in brain slices with L655,708; type: cell-based
T1 construct: Whole-cell patch-clamp recordings were made from post-stroke brain slices; from tissue; host or cells: brain slices, peri-infarct motor cortex, layer 2/3 pyramidal neurons
T1 sequence (Q8BHJ7 32-463 limits assumed): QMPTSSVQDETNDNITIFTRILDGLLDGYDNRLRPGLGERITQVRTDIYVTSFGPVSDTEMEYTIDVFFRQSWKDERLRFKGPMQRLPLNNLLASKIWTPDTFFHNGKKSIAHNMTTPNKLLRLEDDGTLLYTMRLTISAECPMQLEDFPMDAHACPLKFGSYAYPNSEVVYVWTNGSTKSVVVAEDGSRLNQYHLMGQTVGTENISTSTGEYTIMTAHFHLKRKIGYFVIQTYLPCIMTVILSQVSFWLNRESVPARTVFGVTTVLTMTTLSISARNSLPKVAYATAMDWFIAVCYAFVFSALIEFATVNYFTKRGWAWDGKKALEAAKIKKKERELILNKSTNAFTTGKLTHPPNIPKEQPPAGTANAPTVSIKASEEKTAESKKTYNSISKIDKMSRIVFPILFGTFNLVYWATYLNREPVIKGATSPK
T1 sequence (P22723 39-474): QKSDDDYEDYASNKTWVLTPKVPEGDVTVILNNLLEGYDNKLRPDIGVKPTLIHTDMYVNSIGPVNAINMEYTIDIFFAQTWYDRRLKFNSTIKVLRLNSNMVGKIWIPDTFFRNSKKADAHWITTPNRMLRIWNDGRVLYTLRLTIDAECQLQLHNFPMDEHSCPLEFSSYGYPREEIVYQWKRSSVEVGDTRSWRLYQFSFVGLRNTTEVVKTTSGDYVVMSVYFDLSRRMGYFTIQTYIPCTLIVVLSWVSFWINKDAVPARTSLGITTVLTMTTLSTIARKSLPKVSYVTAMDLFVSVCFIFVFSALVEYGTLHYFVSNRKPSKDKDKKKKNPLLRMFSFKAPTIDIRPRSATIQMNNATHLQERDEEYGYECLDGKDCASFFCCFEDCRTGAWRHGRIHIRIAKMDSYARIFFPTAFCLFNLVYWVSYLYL
T1 sequence (P63080 26-473 partner): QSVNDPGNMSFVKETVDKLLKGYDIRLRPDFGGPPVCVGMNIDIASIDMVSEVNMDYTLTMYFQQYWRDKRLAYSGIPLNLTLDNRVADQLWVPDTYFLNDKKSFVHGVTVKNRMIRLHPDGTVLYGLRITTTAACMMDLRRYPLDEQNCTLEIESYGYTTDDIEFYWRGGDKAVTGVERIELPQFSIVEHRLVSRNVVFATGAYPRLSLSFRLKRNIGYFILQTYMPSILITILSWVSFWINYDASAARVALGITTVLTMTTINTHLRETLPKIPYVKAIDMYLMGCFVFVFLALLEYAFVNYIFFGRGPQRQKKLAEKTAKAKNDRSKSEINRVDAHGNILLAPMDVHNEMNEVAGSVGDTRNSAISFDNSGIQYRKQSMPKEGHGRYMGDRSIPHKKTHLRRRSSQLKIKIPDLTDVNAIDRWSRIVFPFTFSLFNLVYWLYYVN
Source text: as §1, with “mV. […] FIGS. 1C and D show representative traces showing the tonic inhibitory currents in control and peri-infarct neurons, respectively.” for “mV.”
(§2) Itonic remained elevated from 3- to 14-days post-stroke.
(§3) In post-stroke neurons, co-application only produced an effect (110.7±32.0%, n=5) similar to GAT-1 blockade alone (P<0.68; FIG. 2A), indicating a dysfunction in GAT-3/4 after stroke.

mice after stroke [1] = test: Behavioral/functional recovery after stroke (grid-walking and cylinder tasks together); type: in vivo, mouse
Protocol: The GABAaα5 inverse agonist L655,708 was administered through subcutaneously implanted osmotic minipumps. Mice were tested fore- and hindlimb function before, and then at one, two, four and six weeks after stroke.
FIGS. 9A-9C illustrate behavioral recovery after stroke in young and aged animals with L655,708. […] Functional recovery was assessed behaviorally on both the gridwalking task for forelimb footfaults (FIG. 9A) and hindlimb footfaults (FIG. 9B), and on the cylinder task for forelimb asymmetry (FIG. 9C). […] On average the normal gain of function in the aged stroke+vehicle treated animals is less than that of the young stroke+vehicle treated animals. In addition, the aged stroke+L655,708 animals show slightly less improvement compared to young stroke+L655,708 animals. For instance, on the cylinder task young stroke+L655,708 animals show a 15-18% gain of function post-stroke (7 to 42-days), compared with a 13-16% gain of function post-stroke in the aged. Data is shown as mean±s.e.m. for n=8 per group for L655,708 treatment for both young and aged animals, ***=P≤0.001 for stroke+vehicle vs Sham; +=P≤0.05, ++=P≤0.001 aged stroke+L655,708 vs aged stroke+vehicle, ##=P≤0.01, #=P≤0.001 young stroke+L655,708 vs young stroke+vehicle.
Functional recovery was assessed behaviorally on both the gridwalking task for forelimb footfaults (FIG. 10A), hindlimb footfaults (FIG. 10B), and on the cylinder task for forelimb asymmetry (FIG. 10C). Data are shown as mean±s.e.m. for n=8 per group, ***=P≤0.001 for stroke+vehicle vs. Sham; ##=P≤0.01, #=P≤0.001 vs. stroke+vehicle.
Two different durations of treatment were used (2 weeks and 6 weeks after stroke. Because stroke is a disease of aging, and the clinical target of stroke is most commonly aged patients, L655,708 was tested in aged animals after stroke. At the end of behavioral testing (6 weeks after stroke) mice received mapping of the pattern of cortical connections in the motor system in peri-infarct cortex (Overman J J, Kalaria S, Overman B, Willis D, Twiss J, Wanner I B, Li S, Carmichael S T (2008) Post-stroke blockade of ephrinA5 increases axonal sprouting in the mouse somatosensory cortex. Soc Neurosci. Abst.). Axonal sprouting in this pen-infarct cortex is closely associated with functional recovery in stroke (Carmichael, '06). Therapies directed toward neural repair after stroke promote the formation of new connections in peri-infarct cortex (Overman et al., '08).
To define the total role of GABAA α5 and δ receptors in functional recovery after stroke, behavioral testing was performed on Gabra5^−/− and Gabrd^−/− mice (FIGS. 8A-8C). For both α5 and δ knockouts, the same experimental approach was utilized. Mice were tested for e- and hindlimb function before stroke. […]

mice after stroke [2] = test: Cylinder task (spontaneous forelimb use when rearing) after stroke; type: in vivo, mouse; conditions: for gain of function post-stroke on the cylinder task: 7 to 42 days post-stroke
Source text: (§4) Stroke completely destroys the tissue in at the center of the stroke (the core) and partially damages the tissue adjacent to the infarct (Katsman D, Spinelli K, Zhang J, and Carmichael S T (2003) Tissue microenvironments within functional cortical subdivisions adjacent to focal stroke. J Cereb Blood Flow Met 23:997-1009; Carmichael S T, Archibeque I, Luke L, Nolan T, Momiy J, Li S. (2005) Growth-Associated Gene Expression after Stroke: Evidence for a growth-promoting region in peri-infarct cortex. Expt Neurol. 193:291-311), i.e., the peri-infarct region. Studies indicate that this peri-infarct region is disabled through partial damage to neuronal circuits, as described above. To model this process experimentally, a stroke model was used that produces complete damage to a part of the brain that controls forelimb use in a mouse, the forelimb motor cortex (FIGS. 5A-5B). […] The stroke destroys part of the forelimb motor cortex. The vertical line indicates site of tissue sections in the middle panel. […] The stroke damage is restricted to the cortex, with partial damage in adjacent white mater and surrounding motor areas. This damage is seen as increased staining for GFAP (reactive astrocytes, arrows) and increased cellularity in Nissl stains (arrows). This stroke knocks out part of the forelimb motor cortex and causes partial damage to the rest of forelimb cortex and to hindlimb motor cortex. This disables fore- and hindlimb control and produces weakness in using these limbs for walking and for exploratory forelimb behaviors, (such as using the forelimb when rearing onto objects, FIGS. 6A-6C). Measures of fore- and hindlimb behaviors in this model of stroke thus provide a readout of the function of partially damaged brain areas near the stroke core.
Treatments that must be administered very early in the clinical course of stroke, such as tPA, are difficult to deliver because most patients are not in the hospital and so rapid emergency response and laboratory screening systems must be developed. […]

mice after stroke [3] = test: Grid-walking task after stroke in forelimb motor cortex; type: in vivo, mouse; conditions: subcutaneous osmotic minipump from 3 days after stroke
Source text: as §4, with “This damage is seen as increased staining for GFAP (reactive astrocytes, arrows) and increased cellularity in Nissl stains (arrows). This stroke knocks out part of the forelimb motor cortex and causes partial damage to the rest of forelimb cortex and to hindlimb motor cortex. This disables fore- and hindlimb control and produces weakness in using these limbs for walking and for exploratory forelimb behaviors, (such as using the forelimb when rearing onto objects, FIGS. 6A-6C).” left out, “core. […]” for “core.”

[4] = target: T2, GABA transporters (GATs): GAT-1, GAT-3/4 (Mus musculus, UniProt P31648); test: Whole-cell patch-clamp of tonic inhibition (Itonic) in brain slices after GAT blockade; type: cell-based; conditions: NO-711 10 μM
T2 construct: Whole-cell patch-clamp recordings were made from post-stroke brain slices; from tissue; host or cells: brain slices, peri-infarct motor cortex, recordings from layer 2/3 pyramidal neurons
Source text: as §1, with “mV. […] FIGS. 1C and D show representative traces showing the tonic inhibitory currents in control and peri-infarct neurons, respectively.” for “mV.”
as §2, §3

Compound: NCCCC(=O)O [GABA, gamma aminobutyric acid]
- percent increase in Itonic (GABAARs): 25.7±15.0%

Compound: CCOC(=O)c1ncn2c1[C@@H]1CCCN1C(=O)c1cc(OC)ccc1-2 [L655,708]
- effect on Itonic (α5GABAA receptor; 100 nM, representative recording (FIG. 2D)): reduced Itonic
- effect on post-stroke Itonic (α5GABAA receptor; post-stroke neurons, P<0.05 (FIG. 2F)): significantly decreased post-stroke Itonic, and notably reverted Itonic to near-control level
- behavioral recovery after stroke, dosing duration (mice after stroke [1]; 2-week and 6-week treatment, 6-week the most significant recovery): produces behavioral recovery
- functional recovery after stroke in Gabrd−/− mice (mice after stroke [1]; L655,708 given to GABAA receptor δ subunit null mutant mice): additive effect on functional recovery; also recorded: further functional recovery
- functional recovery after stroke (mice after stroke [1]; treatment from 3 days after stroke, young and aged animals, FIGS. 9A-9C): increase in functional recovery in both young and aged animals
- behavioral recovery after stroke, dose dependence (mice after stroke [1]; young adult and aged mice, low and high dose): promotes behavioral recovery after stroke in a dose-dependent manner
- gain of function post-stroke on the cylinder task (mice after stroke [2]; aged stroke animals): 13-16%
- forelimb function in the cylinder task (mice after stroke [2]; subcutaneous osmotic minipump from 3 days after stroke, 7 day post-stroke test period, FIG. 6C): recovered right forelimb use very quickly
- gain of function post-stroke on the cylinder task (mice after stroke [2]; young stroke animals): 15-18%
- hindlimb function in the grid-walking task (mice after stroke [3]; FIG. 6B): statistically significant improvement by the 42 day testing period
- forelimb function in the grid-walking task (mice after stroke [3]; approx. 200 or 400 μg/kg/day, FIG. 6A): enhanced forelimb use

- % Itonic increase after GAT blockade ([4]; control neurons, n=6): 34.3±11.4%
- % Itonic increase after GAT blockade ([4]; post-stroke neurons, n=10): 94.0±16.3%
Compound: O=C(O)C1=CCCN(CCON=C(c2ccccc2)c2ccccc2)C1 [NO-711]

Source: US10206921B2, “Methods and compositions for treating a subject for central nervous system (CNS) injury” (THE REGENTS OF THE UNIVERSITY OF CALIFORNIA, priority 2009, dated 2019)
